Measured values taken from patent publication US8431596B2 (Cancer Research Technology Limited, priority 2007, dated 2013).
Values joined by “and” are separate entries in the source; they are usually repeats but may differ in a detail not shown here. Equal values may be shown once.

Target: T1, AXL (human catalytic domain) (Homo sapiens, UniProt P30530)
T1 construct: purchased Upstate Ltd. 14-512
T1 sequence (P30530 473-894): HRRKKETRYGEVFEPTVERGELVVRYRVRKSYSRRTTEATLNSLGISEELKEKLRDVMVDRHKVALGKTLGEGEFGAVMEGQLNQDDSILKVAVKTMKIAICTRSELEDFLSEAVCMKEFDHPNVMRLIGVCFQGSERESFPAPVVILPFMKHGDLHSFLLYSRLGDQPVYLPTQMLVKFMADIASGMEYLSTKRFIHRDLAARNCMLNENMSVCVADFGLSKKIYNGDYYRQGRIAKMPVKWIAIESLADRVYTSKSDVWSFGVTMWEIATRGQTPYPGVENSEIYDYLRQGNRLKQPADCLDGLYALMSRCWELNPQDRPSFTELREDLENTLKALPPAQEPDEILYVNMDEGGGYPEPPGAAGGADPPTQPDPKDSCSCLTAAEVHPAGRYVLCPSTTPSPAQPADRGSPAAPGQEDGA
Experiment: AXL (human catalytic domain) Enzyme Activity Assay (IMAP fluorescence polarisation)
Type: biochemical
Method: Biological Methods AXL (human catalytic domain) Enzyme Activity Assay Reagents
Kinase Assay Reaction Buffer: This consisted of 20 mM HEPES pH 7.0, 10 mM MgCl2, 1 mM DTT, […], 0.01% Triton X100 (v/v), and 0.01% BSA (w/v). All buffer components were purchased from Sigma-Aldrich at reagent grade or higher.
Kinase: Recombinant AXL isoform 1 (aa473-894 corresponding to Genbank Accession Number NP 068713) at 2 mg/mL (20.8 μM) was purchased from Upstate Ltd. (Product code 14-512, lot #28164U). The enzyme was stored at −80° C. and a working stock was prepared to a concentration of 30 nM by diluting 20.8 μM stock 1:693 in cold (4° C.) 1× Reaction Buffer. Final enzyme concentration in the assay was 15 nM.
Substrate: Fluorescein labelled CSK-tide 5FAM-[…]-NH2 was obtained from Molecular Devices (Product code R7270) and used at a working concentration of 200 nM by diluting the 100 μM stock 1:500 in 1× Reaction Buffer in a mix with the enzyme. A negative control (lacking enzyme) was prepared at the same concentrations. Final substrate concentration in the assay was 100 nM.
ATP: Supplied by Sigma (product code A-7699). A 100 mM ATP stock was prepared in […] and used at a working concentration of 375 μM by diluting the 100 mM stock 1:266.6 in Reaction Buffer. Final ATP concentration in the assay was 150 μM; this concentration represents the KM.ATP for this enzyme calculated in this assay.
IMAP Reagents: IMAP screening express kit was obtained from Molecular Devices (product code R8127). The binding reagent was gently re-suspended before diluting by 1:1000 in buffer (Binding Buffer is supplied as a 5× stock and so was diluted with water prior to use—this assay used 40% buffer A and 60% buffer B) and then vortexed before addition to wells. The binding reagent was used at a final dilution of 1:1333.
1 μL samples of test compounds in 10% DMSO/water were added to “test” wells by dry-spotting using a Matrix Platemate Plus. 5 μL Kinase/Substrate in Reaction Buffer were added to columns 1-22 of a Corning black low binding 384 well #6754 (90 μL volume) microplate to give 12 nM and 100 nM reaction concentration respectively. 5 μL substrate in Reaction Buffer was added to columns 23 and 24 to give 100 nM reaction concentration. 4 μL ATP in Reaction Buffer was added to all wells to give 150 μM reaction concentration. The reaction mixture was then incubated at room temperature for 60 minutes. The incubation period was followed by the addition of 20 μL IMAP Binding Reagent in Binding Buffer to all wells. The IMAP reaction detection was further incubated at room temperature overnight. The FP on a Tecan Ultra Plate reader was recorded as a single read at Ex485 Em535.
Percentage inhibition was calculated based on activity of the test sample minus the average values in the blank wells relative to the average values measured in control wells minus the average values in the blank wells.
IC50 values were calculated from 10 point dose sigmoid ‘dose-response’ curves using XIfit software (IDBS Inc, USA). Data were fitted to a 4 parameter logistic model/sigmoidal dose response defined by the following equation:
[formula] where: • A=fit minimum (locked to 0); • B=fit maximum (locked to 100); • C=fit midpoint (pre-fit to 1); and • D=slope at linear portion of curve, hillslope (pre-fit to 0.1).
The value for C represents the IC50 of the test compound.

[1] = first data set, recombinant AXL isoform 1 aa473-894, 150 μM ATP
[2] = further data set (WW-001 through WW-169, XX-001 through XX-469, YY-001 through YY-016, ZZ-001 through ZZ-003), 150 μM ATP

| SMILES | IC50 [1] | IC50 [2] [nM] |
| --- | --- | --- |
| O=C(Nc1nc2cccc(-c3ccc4ncccc4c3)n2n1)C1CC1 [WW-092] | < 1000 nM | 100 to 1000 |
| COc1cc(-c2cccc3nc(NC(=O)C4CC4)nn23)ccc1O [WW-093] | 1000 to 10000 nM | 1000 to 10000 |
| COc1ccc(-c2cccc3nc(NC(=O)C4CC4)nn23)cc1C [WW-094] | < 1000 nM | 100 to 1000 |
| COc1c(C)cc(-c2cccc3nc(NC(=O)C4CC4)nn23)cc1C [WW-095] | 1000 to 10000 nM | 1000 to 10000 |
| O=C(Nc1nc2cccc(-c3ccc(O)c(F)c3)n2n1)C1CC1 [WW-096] | < 1000 nM | 100 to 1000 |
| O=C(Nc1nc2cccc(-c3ccc(F)c(O)c3)n2n1)C1CC1 [WW-097] | < 1000 nM | 100 to 1000 |
| COc1cc(-c2cccc3nc(NC(=O)C4CC4)nn23)ccc1F [WW-098] | 1000 to 10000 nM | 1000 to 10000 |
| O=C(Nc1nc2cccc(-c3ccc(OC(F)(F)F)cc3)n2n1)C1CC1 [WW-099] | 1000 to 10000 nM | 1000 to 10000 |
| COc1ccc(-c2cccc3nc(NC(=O)C4CC4)nn23)cc1OC [WW-100] | 1000 to 10000 nM | 1000 to 10000 |
| CCOc1ccc(-c2cccc3nc(NC(=O)C4CC4)nn23)cc1F [WW-101] | 1000 to 10000 nM | 1000 to 10000 |
| O=C(Nc1nc2cccc(-c3ccc4c(c3)OCCO4)n2n1)C1CC1 [WW-102] | < 1000 nM | 100 to 1000 |
| Cc1cc(-c2cccc3nc(NC(=O)C4CC4)nn23)ccc1N(C)C [WW-103] | < 1000 nM and 664 nM | 100 to 1000 |
| O=C(Nc1nc2cccc(-c3cnn(Cc4ccccc4)c3)n2n1)C1CC1 [WW-105] | 1000 to 10000 nM | 1000 to 10000 |
| O=C(Nc1nc2cccc(-c3ccc4cc[nH]c4c3)n2n1)C1CC1 [WW-106] | < 1000 nM | 100 to 1000 |
| O=C(Nc1nc2cccc(-c3ccc([N+](=O)[O-])cc3)n2n1)C1CC1 [WW-107] | 1000 to 10000 nM | 1000 to 10000 |
| CC(C)Cn1cc(-c2cccc3nc(NC(=O)C4CC4)nn23)cn1 [WW-108] | 1000 to 10000 nM | 1000 to 10000 |
| O=C(Nc1nc2cccc(-c3ccc(-n4cccn4)cc3)n2n1)C1CC1 [WW-109] | 1000 to 10000 nM | 1000 to 10000 |
| CC(C)(C)OC(=O)Nc1ccc(-c2cccc3nc(NC(=O)C4CC4)nn23)cc1 [WW-110] | 1000 to 10000 nM | 1000 to 10000 |
| CC(Nc1cccc2nc(NC(=O)C3CC3)nn12)c1ccccc1 (stereo not drawn) [WW-113] | 1000 to 10000 nM | 1000 to 10000 |
| CN(C(=O)OC(C)(C)C)c1ccc(-c2cccc3nc(NC(=O)C4CC4)nn23)cc1 [WW-119, {4-[2-(cyclopropanecarbonyl-amino)-[1,2,4]triazolo[1,5-a]pyridin-5-yl]-phenyl}-methyl-carbamic acid tert-butyl ester] | 1000 to 10000 nM | 1000 to 10000 |

| SMILES | IC50 [1] | IC50 [2] [nM] |
| --- | --- | --- |
| CNc1ccc(-c2cccc3nc(NC(=O)C4CC4)nn23)cc1 [WW-120, Cyclopropanecarboxylic acid [5-(4-methylamino-phenyl)-[1,2,4]triazolo[1,5-a]pyridin-2-yl]-amide] | 1000 to 10000 nM | 1000 to 10000 |
| O=C(Nc1nc2cccc(-c3ccc(OCC4CC4)cc3)n2n1)C1CC1 [WW-121] | 1000 to 10000 nM | 1000 to 10000 |
| C#CCOc1ccc(-c2cccc3nc(NC(=O)C4CC4)nn23)cc1 [WW-122] | 1000 to 10000 nM | 1000 to 10000 |
| COc1cccc(COc2ccc(-c3cccc4nc(NC(=O)C5CC5)nn34)cc2)c1 [WW-123, Cyclopropanecarboxylic acid {5-[4-(3-methoxy-benzyloxy)-phenyl]-[1,2,4]triazolo[1,5-a]pyridin-2-yl}-amide] | 1000 to 10000 nM | 1000 to 10000 |
| CCCn1cc(-c2cccc3nc(NC(=O)C4CC4)nn23)cn1 [WW-124, Cyclopropanecarboxylic acid [5-(1-propyl-1H-pyrazol-4-yl)-[1,2,4]triazolo[1,5-a]pyridin-2-yl]-amide] | 1000 to 10000 nM | 1000 to 10000 |
| COc1ccc(-c2cccc3nc(NC(=O)C4CC4(F)F)nn23)cc1 (stereo not drawn) [WW-125] | 1000 to 10000 nM | 1000 to 10000 |
| COc1ccc(Nc2cccc3nc(NC(=O)C4CC4)nn23)cc1 [WW-127, Cyclopropanecarboxylic acid [5-(4-methoxy-phenylamino)-[1,2,4]triazolo[1,5-a]pyridin-2-yl]-amide] | 1000 to 10000 nM | 1000 to 10000 |
| O=C(Nc1nc2cccc(Nc3ccccc3Cl)n2n1)C1CC1 [WW-128] | 1000 to 10000 nM | 1000 to 10000 |
| O=C(Nc1nc2cccc(Nc3cccc(Cl)c3)n2n1)C1CC1 [WW-129] | 1000 to 10000 nM | 1000 to 10000 |
| O=C(Nc1nc2cccc(-c3ccc4occc4c3)n2n1)C1CC1 [WW-133] | < 1000 nM | 100 to 1000 |
| CC(C)CCn1cc(-c2cccc3nc(NC(=O)C4CC4)nn23)cn1 [WW-135] | 1000 to 10000 nM | 1000 to 10000 |
| CSc1ccc(-c2cccc3nc(NC(=O)C4CC4)nn23)cc1 [WW-136] | 1000 to 10000 nM | 1000 to 10000 |
| O=C(Nc1nc2cccc(-c3cccc(-n4cccn4)c3)n2n1)C1CC1 [WW-137] | 1000 to 10000 nM | 1000 to 10000 |
| CC(C)(C)c1ccc(-c2cccc3nc(NC(=O)C4CC4)nn23)cc1 [WW-139] | 1000 to 10000 nM | 1000 to 10000 |
| O=C(Nc1nc2cccc(-c3ccc4c(c3)OCCCO4)n2n1)C1CC1 [WW-144] | 1000 to 10000 nM | 1000 to 10000 |
| CCS(=O)(=O)n1cc(-c2cccc3nc(NC(=O)C4CC4)nn23)cn1 [WW-147, Cyclopropanecarboxylic acid [5-(1-ethanesulfonyl-1H-pyrazol-4-yl)-[1,2,4]triazolo[1,5-a]pyridin-2-yl]-amide] | 1000 to 10000 nM | 1000 to 10000 |
| Cc1c(-c2cccc3nc(NC(=O)C4CC4)nn23)cnn1-c1ccccc1 [WW-148] | 1000 to 10000 nM | 1000 to 10000 |
| O=C(Nc1nc2cccc(-c3cc[nH]c3)n2n1)C1CC1 [WW-149] | 1000 to 10000 nM | 1000 to 10000 |
| CC(C)Oc1ccc(-c2cccc3nc(NC(=O)C4CC4)nn23)cc1 [WW-150] | 1000 to 10000 nM | 1000 to 10000 |
